Results as given in US6638531B1, “Antimicrobial peptides” (priority 1998, dated 2003).
Like-named read-outs stand apart in the source and are kept apart here. Marks after values point to notes of the source that are not given here. Where no end group is shown, it is not given here.

Legend:
Assay type in all cases: cell-based
[1] = test system: Candida albicans; assay: Growth inhibition on agar with spotted peptide; parameters: key: “+” designates full growth inhibition; “+/−” designates partial inhibition; “−” signifies no inhibition; details: C. albicans on agar, 10 μg peptide spotted
Experimental: (§1) The growth of the yeast Candida albicans, Torulopsis glabrata and meticillin-resistant Staphylococcus aureus (MRSA) was tested by growing them on agar on which 10 μg of each of the peptides according to the invention was spotted. […] “+” designates full growth inhibition, “+/−” designates partial inhibition and “−” signifies no inhibition.

[2] = test system: Torulopsis glabrata; assay: Growth inhibition on agar with spotted peptide; parameters: key: “+” designates full growth inhibition; “+/−” designates partial inhibition; “−” signifies no inhibition; details: T. glabrata on agar, 10 μg peptide spotted
Experimental: as §1

[3] = test system: Streptococcus sanguis; assay: Inhibition of lactic acid production; details: S. sanguis; 1 hour in 10 mM PPB with glucose
Experimental: (§2) All peptides according to the invention were tested for their capacity to inhibit the lactic acid production of the bacteria Streptococcus sanguis, Streptococcus mutans, Streptococcus salivarius and Lactobacillus rhamnosus. The formation of lactic acid is a measure for the metabolic activity. For this purpose cultures of bacteria cells were incubated for 1 hour in 10 mM PPB with 0.5 glucose and different concentrations of the peptides. The formation of lactic acid was monitored by means of spectrophotometry.

[4] = test system: Lactobacillus rhamnosus; assay: Inhibition of lactic acid production; details: L. rhamnosus; 1 hour in 10 mM PPB with glucose
Experimental: as §2

[5] = test system: Streptococcus mutans; assay: Inhibition of lactic acid production; details: S. mutans; 1 hour in 10 mM PPB with glucose
Experimental: as §2

[6] = test system: Streptococcus salivarius; assay: Inhibition of lactic acid production; details: S. salivarius; 1 hour in 10 mM PPB with glucose
Experimental: as §2

[7] = test system: meticillin-resistant Staphylococcus aureus (MRSA); assay: Growth inhibition on agar with spotted peptide; parameters: key: “+” designates full growth inhibition; “+/−” designates partial inhibition; “−” signifies no inhibition; details: 10 μg peptide spotted
Experimental: as §1

[8] = test system: artificial oral biofilm of seven oral aerobic and anaerobic types of bacteria; assay: Antibacterial activity in an artificial oral biofilm; details: for % reduction in viability counts, total Gram-negative average (s.d.) / % reduction in viability counts, total aerobic average / % reduction in viability counts, total anaerobic average: 0.5 h, pH 7; for inhibition at 35 ppm / inhibition at 200 ppm: po
Experimental: An artificial oral biofilm was made by placing hydroxyapatite discs for five days in a continuous culture system of seven oral aerobic and anaerobic types of bacteria (Streptococcus mutans, Streptococcus sanpuis, Streptococcus salivarius, Actinomyces naeslundii, Veillonella parvula, Prevotella intermedia and Fusobacterium nucleatum) The discs with the biofilm formed thereon were subsequently incubated for half an hour with different concentrations of peptide in 10 mM potassium phosphate buffer, pH 7.0. The biofilm was then sonicated from the discs, diluted in PBS and plated out on semi-selective agar plates. The total […] were counted (Streptococci+Actinomyces) on aerobic incubated blood agar plates, the total Gram-negative counts (Veilonella, Fusobacterium and Prevotella) on vancomycin-containing plates and the total counts on the anaerobic incubated blood agar.

[9] = test system: bacteria collected from saliva; assay: Antimicrobial activity on oral bacteria; details: po
Excerpt: (§3) In order to determine whether the peptides according to the invention are also active against bacteria such as are encountered in the mouth, bacteria were collected from saliva and plaque. Saliva was shaken on a vortex mixer and centrifuged.

[10] = test system: bacteria collected from plaque; assay: Antimicrobial activity on oral bacteria; details: po
Excerpt: as §3

[11] = test system: bacteria from disrupted plaque; assay: Antimicrobial activity on oral bacteria; details: po
Excerpt: as §3

[12] = test system: bacteria from cultured plaque; assay: Antimicrobial activity on oral bacteria; details: po
Excerpt: as §3

[13] = read-out: % reduction in viability counts, total Gram-negative average (s.d.)
[14] = read-out: % reduction in viability counts, total aerobic average
[15] = read-out: % reduction in viability counts, total anaerobic average
[16] = read-out: % reduction in viability counts, total Gram-negative average

Row | Molecule | growth inhibition [1] | growth inhibition [2] | inhibition of lactic acid production [3] | inhibition of lactic acid production [4] | inhibition of lactic acid production [5] | inhibition of lactic acid production [6] | growth inhibition [7] | further results
1 | OOLFOELOOSLOOY [peptide 7] | + | + | + (“+” designates full inhibition at 4-20 μg/ml peptide) | + (“+” designates full inhibition at 4-20 μg/ml peptide) | + (“+” designates full inhibition at 4-20 μg/ml peptide) | + (“+” designates full inhibition at 4-20 μg/ml peptide) |  | 
2 | KRLFKELLFSLRKY [peptide 4] | + | + | + (“+” designates full inhibition at 4-20 μg/ml peptide) | + (“+” designates full inhibition at 4-20 μg/ml peptide) | + (“+” designates full inhibition at 4-20 μg/ml peptide) | + (“+” designates full inhibition at 4-20 μg/ml peptide) | +/− | 
3 | OOLFOELLOSLOOY [peptide 8] | + | + | + (“+” designates full inhibition at 4-20 μg/ml peptide) | + (“+” designates full inhibition at 4-20 μg/ml peptide) | + (“+” designates full inhibition at 4-20 μg/ml peptide) | + (“+” designates full inhibition at 4-20 μg/ml peptide) |  | 
4 | KRLFKELLKSLRKY [peptide 6] | + | + | + (“+” designates full inhibition at 4-20 μg/ml peptide) | + (“+” designates full inhibition at 4-20 μg/ml peptide) | + (“+” designates full inhibition at 4-20 μg/ml peptide) | + (“+” designates full inhibition at 4-20 μg/ml peptide) |  | 
5 | KRKFHEKHHSHRGY [dh-5, C-terminal part of histatin 5, reference compound] | − | − | − (“−” signifies no inhibition of lactic acid formation at >100 μg/ml peptide) | − (“−” signifies no inhibition of lactic acid formation at >100 μg/ml peptide) | − (“−” signifies no inhibition of lactic acid formation at >100 μg/ml peptide) | − (“−” signifies no inhibition of lactic acid formation at >100 μg/ml peptide) | − | 
6 | KRLFKKLKFSLRKY-OH [peptide 9, KRLFKKLKFSLRKY] | + | + | + (“+” designates full inhibition at 4-20 μg/ml peptide) | + (“+” designates full inhibition at 4-20 μg/ml peptide) | + (“+” designates full inhibition at 4-20 μg/ml peptide) | + (“+” designates full inhibition at 4-20 μg/ml peptide) | + | % reduction in viability counts, total Gram-negative average (s.d.) ([8]; 10 μg/ml): 51.0 (32.0)* %; % reduction in viability counts, total aerobic average ([8]; 10 μg/ml): −67.4%; % reduction in viability counts, total anaerobic average ([8]; 10 μg/ml): −66.2%; % reduction in viability counts, total Gram-negative average (s.d.) ([8]; 100 μg/ml): 30.6 (104.4)* %; % reduction in viability counts, total aerobic average ([8]; 100 μg/ml): 78.7%; % reduction in viability counts, total anaerobic average ([8]; 100 μg/ml): 51.2%; % reduction in viability counts, total Gram-negative average (s.d.) ([8]; 250 μg/ml): 53.3 (70.7) %; % reduction in viability counts, total aerobic average ([8]; 250 μg/ml): 64.8%; % reduction in viability counts, total anaerobic average ([8]; 250 μg/ml): 61.2%; % reduction in viability counts, total Gram-negative average (s.d.) ([8]; 500 μg/ml): 96.9 (0.85)* %; % reduction in viability counts, total aerobic average ([8]; 500 μg/ml): 96.6%; % reduction in viability counts, total anaerobic average ([8]; 500 μg/ml): 93.2%
7 | KRLFKELLFSLRKY-amide (KRLFKELLFSLRKY-NH2) [peptide 13] | + | + | + (“+” designates full inhibition at 4-20 μg/ml peptide) | + (“+” designates full inhibition at 4-20 μg/ml peptide) | + (“+” designates full inhibition at 4-20 μg/ml peptide) | + (“+” designates full inhibition at 4-20 μg/ml peptide) |  | 
8 | LLLFLLKKRKKRKY [peptide 11] | + | + | + (“+” designates full inhibition at 4-20 μg/ml peptide) | + (“+” designates full inhibition at 4-20 μg/ml peptide) | + (“+” designates full inhibition at 4-20 μg/ml peptide) | + (“+” designates full inhibition at 4-20 μg/ml peptide) | + | 
9 | KRLFKELKFSLRKY-amide (KRLFKELKFSLRKY-NH2) [peptide 12] | + | + | + (“+” designates full inhibition at 4-20 μg/ml peptide) | + (“+” designates full inhibition at 4-20 μg/ml peptide) | + (“+” designates full inhibition at 4-20 μg/ml peptide) | + (“+” designates full inhibition at 4-20 μg/ml peptide) |  | 
10 | KRLFKELKKSLRKY [peptide 5] | + | + | + (“+” designates full inhibition at 4-20 μg/ml peptide) | + (“+” designates full inhibition at 4-20 μg/ml peptide) | + (“+” designates full inhibition at 4-20 μg/ml peptide) | + (“+” designates full inhibition at 4-20 μg/ml peptide) |  | 
11 | [H]/N=C(\N/C(=N/[H])NCCCCCCNC(=N)NC(=N)Nc1ccc(Cl)cc1)Nc1ccc(Cl)cc1 [Chlorhexidine] |  |  |  |  |  |  |  | inhibition at 35 ppm [8, 13]: 68.3%; inhibition at 200 ppm [8, 13]: 99.9%; inhibition at 35 ppm [8, 14]: 39%; inhibition at 200 ppm [8, 14]: 99.9%; inhibition at 35 ppm [8, 15]: 38.4%; inhibition at 200 ppm [8, 15]: 99.9%; inhibition at 50 ppm [9, 16]: > 99.9%; inhibition at 50 ppm [9, 14]: > 99.9%; inhibition at 50 ppm [9, 15]: > 99.9%; inhibition at 50 ppm [10, 16]: 99.7%; inhibition at 50 ppm [10, 14]: 99.7%; inhibition at 50 ppm [10, 15]: 99.7%; inhibition at 50 ppm [11, 16]: > 99.9%; inhibition at 50 ppm [11, 14]: 99.7%; inhibition at 50 ppm [11, 15]: 99%; inhibition at 50 ppm [12, 16]: > 99.9%; inhibition at 50 ppm [12, 14]: > 99.9%; inhibition at 50 ppm [12, 15]: > 99.9%
